Reference: PubChem BioAssay (NCI)
Several values for one entry are separate records, joined by “and”; a condition that tells them apart may be missing. Equal entries are not always repeated.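 In this assay, cells in 96-well plates receive the compound at five concentrations for 48 hours. Endpoints are linearly interpolated between the surrounding concentrations. GI50 = concentration required for 50% inhibition of growth. The concentration for full growth arrest is given as TGI.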

Columns and labels:
Experiment in all cases: NCI tumour cell line growth inhibition, 48 h
DLD-1 colon = tested on: DLD-1 colon
KM20L2 colon = tested on: KM20L2 colon
LXFL 529 NSCLC = tested on: LXFL 529 NSCLC
M19-MEL melanoma = tested on: M19-MEL melanoma
SNB-78 CNS = tested on: SNB-78 CNS
XF 498 CNS = tested on: XF 498 CNS
DMS 114 small cell lung = tested on: DMS 114 small cell lung
RXF-631 renal = tested on: RXF-631 renal
MDA-N = tested on: MDA-N
P388 leukemia = tested on: P388 leukemia
P388/ADR leukemia = tested on: P388/ADR leukemia
SN12K1 renal = tested on: SN12K1 renal

Structure (SMILES) | TGI (DLD-1 colon) | TGI (KM20L2 colon) | TGI (LXFL 529 NSCLC) | TGI (M19-MEL melanoma) | TGI (SNB-78 CNS) | TGI (XF 498 CNS) | TGI (DMS 114 small cell lung) | TGI (RXF-631 renal) | TGI (MDA-N) | other results
COC1CC(OC)C(O)C(CO)O1 (stereo not given) | > 100 µM | > 100 µM | > 100 µM | > 100 µM | > 100 µM | > 100 µM |  |  |  | 
C#Cc1cc(CN(CC(=O)OC(C)(C)C)CC(=O)OC(C)(C)C)nc(CN(CC(=O)OC(C)(C)C)CC(=O)OC(C)(C)C)c1 |  | 69.7 µM | 11.4 µM | 83.2 µM | 70.4 µM | 36.6 µM | 11.5 µM | 38.7 µM |  | 
COC(=O)[C@@]12C=CC(=O)[C@H]3C[C@@H](C(C(C)C)C1)[C@]32OC (stereo not given in full) | > 100 µM | > 100 µM | > 100 µM | > 100 µM | > 100 µM | > 100 µM | > 100 µM | > 100 µM |  | 
COC(C)(C)[C@H](O)C(O)CC(C)[C@@H]1CCC23CC12CCC1[C@@]2(C)CCC(OC(C)=O)C(C)(C)C2CC(OC2OC(COC(C)=O)C(O)C(O)C2O)[C@]13C (stereo not given in full) | 6.29 µM and 9.73 µM | 2.12 µM and 7.94 µM | 12.8 µM and 19.2 µM | 10.2 µM and 13.8 µM | 17.9 µM and 31.7 µM |  | 8.65 µM and 12.8 µM | 12.8 µM |  | GI50 (DLD-1 colon): 3.13 µM; GI50 (DMS 114 small cell lung): 3.62 µM; GI50 (KM20L2 colon): 2.63 µM; GI50 (LXFL 529 NSCLC): 6.23 µM; GI50 (M19-MEL melanoma): 4.04 µM; GI50 (SNB-78 CNS): 14 µM
CCOC(=O)c1cc(OC(=O)CC)c2c(OC)ccc(OC)c2c1 | > 100 µM |  | > 100 µM | > 100 µM |  | > 100 µM | > 100 µM |  |  | 
CC(C)c1ccc2nc3ccc(C(=O)NCCN4CCN(c5ccccc5)CC4)cn3c(=O)c2c1 |  |  |  |  |  |  |  |  | > 100 µM | 
FC(F)(F)c1nc(-c2ccccc2)oc1Sc1oc(-c2ccccc2)nc1C(F)(F)F | > 100 µM | > 100 µM | > 100 µM | > 100 µM | > 100 µM | > 100 µM | > 100 µM |  |  | 
Cc1ccc(NC(=O)CC2C(=O)Nc3ccccc3S2=O)c(C)c1 (stereo not given) | > 76.5 µM | > 49.1 µM | 61.6 µM | > 69.1 µM | 47.6 µM | 28.7 µM | 34.4 µM | > 71.3 µM |  | 
COc1ccc(C2C3=C(COC3=O)Oc3cc4c(cc32)OCO4)cc1 (stereo not given) | > 100 µM | 38.9 µM |  | > 100 µM | > 100 µM | > 100 µM | 38.2 µM |  |  | 
Cn1nc2ccccc2cc1=O | > 100 µM | > 100 µM |  | > 100 µM | > 100 µM | > 100 µM | > 100 µM | > 100 µM |  | 
COc1ccc(C2c3c(-c4ccccc4)nn(-c4ccccc4)c3Oc3ncn4nc(CC#N)nc4c32)cc1OC (stereo not given) |  |  |  |  |  |  |  |  | > 100 µM | GI50 (MDA-N): > 100 µM and 16.2 µM
CCCCCCCCCCCCC(CCCCCCCCCCCC)OP(=O)(O)O | > 100 µM | > 100 µM | > 100 µM | > 100 µM | > 100 µM | > 100 µM | > 100 µM | > 100 µM |  | 
COC(=O)C1=C(C)N(NC(N)=O)C(C)(O)C12CCOC2=O (stereo not given) | > 100 µM | > 100 µM | > 100 µM | > 100 µM | > 100 µM | > 100 µM | > 100 µM |  |  | 
CC1=CC(=O)c2ccc(C)cc2C1=O |  |  |  |  |  |  |  |  | 1.17 µM | 
CC[CH2][Sn]([CH2]CC)([O]C(=O)Cc1ccc(F)cc1)[O][Sn]([CH2]CC)([CH2]CC)[O]C(=O)Cc1ccc(F)cc1 | 0.432 µM | 1.98 µM | 0.099 µM | 0.276 µM |  | 0.302 µM | 0.119 µM |  | 1.43 µM | GI50 (DLD-1 colon): 0.122 µM; GI50 (DMS 114 small cell lung): 0.029 µM; GI50 (KM20L2 colon): 0.662 µM; GI50 (LXFL 529 NSCLC): 0.0129 µM; GI50 (M19-MEL melanoma): 0.0593 µM; GI50 (MDA-N): 0.317 µM; GI50 (XF 498 CNS): 0.161 µM
C=C[C@H]1C=Cc2c(OC)cccc2[C@@H]1COP1(=S)NC(C)C(c2ccccc2)O1 (stereo not given in full) | > 100 µM | > 100 µM | > 100 µM | > 100 µM | > 100 µM | > 100 µM | > 100 µM |  |  | 
O=C(C=Nc1ccccc1C(=O)[O-])c1cccs1.O=C(C=Nc1ccccc1C(=O)[O-])c1cccs1.[Zn+2] | > 100 µM | > 100 µM |  |  |  |  |  |  |  | 
c1ccc2c(c1)[nH]c1c2ncc2[nH]c3ccccc3c21 | 19.7 µM | 12.5 µM | 13.2 µM | 15.8 µM | 27.2 µM | 3.3 µM | 6.69 µM | 5.05 µM |  | 
COC1=C(OC)[C@]2(OC)c3c(O)c(OC)c4c(c3O[C@@]23O[C@@H](c2ccccc2)CC=C3C1=O)[C@@H](O)C[C@H](c1ccccc1)O4 |  |  |  |  |  |  |  |  | 0.424 µM | GI50 (MDA-N): 0.196 µM
CC(C)c1cccc(C(C)C)c1NC(=O)CCC(=O)NN | > 100 µM | > 100 µM | > 100 µM | > 100 µM | > 100 µM |  | > 100 µM |  |  | 
Nc1nc(-c2cccs2)cs1 |  |  |  |  |  |  |  |  | > 100 µM | 
CC(=O)[O][Bi]([c]1ccccc1)[c]1ccccc1 |  |  |  |  |  |  |  |  | 20.3 µM | GI50 (MDA-N): 7.57 µM

Structure (SMILES) | TGI (DLD-1 colon) | TGI (KM20L2 colon) | TGI (LXFL 529 NSCLC) | TGI (M19-MEL melanoma) | TGI (SNB-78 CNS) | TGI (XF 498 CNS) | TGI (DMS 114 small cell lung) | TGI (RXF-631 renal) | TGI (MDA-N) | other results
Cc1ccccc1NC(=O)c1ccc([N+](=O)[O-])cc1 | > 100 µM | > 100 µM | > 100 µM | > 100 µM | > 100 µM | > 100 µM | > 100 µM |  |  | 
Cn1c(=N)n[n+]([O-])c2ccccc21 |  |  |  |  |  |  |  |  | 3.66 µM | 
COC(=O)C(=O)C(C(=O)OC)C(=O)C(=O)Nc1cc(Cl)c(Cl)cc1Cl (stereo not given) | > 100 µM | > 100 µM | > 100 µM | > 100 µM |  | > 100 µM | 30.8 µM | > 100 µM |  | 
CCOC(=O)NC1CC2CCC1(OC)C=C2C (stereo not given) | > 100 µM | > 100 µM | > 100 µM | > 100 µM | > 100 µM | > 100 µM | > 100 µM |  |  | 
C[CH2][Sn]([CH2]C)([O]C(=O)c1ccc(F)cc1)[O][Sn]([CH2]C)([CH2]C)[O]C(=O)c1ccc(F)cc1 | > 100 µM | > 100 µM | 25.8 µM | > 100 µM | 50.4 µM | 31 µM |  |  |  | GI50 (DLD-1 colon): 23.6 µM; GI50 (KM20L2 colon): > 100 µM; GI50 (LXFL 529 NSCLC): 13 µM; GI50 (M19-MEL melanoma): 45.9 µM; GI50 (SNB-78 CNS): 21.1 µM; GI50 (XF 498 CNS): 16.4 µM
O=c1ccnc(SCc2ccc(Cl)cc2)[nH]1 |  |  |  |  |  |  |  |  | > 100 µM | 
C=C(CN(C)C)C(=O)c1ccc(Oc2ccccc2)cc1 | 6.96 µM | 27.5 µM | 5.04 µM | 14.8 µM | 41.9 µM | 27.9 µM |  | 35.9 µM | 9.38 µM | 
N#CSc1ccc(S(N)(=O)=O)cc1 |  |  |  |  |  |  |  |  | > 100 µM | 
CCCN1C(=O)CNC(=O)c2[nH]cnc21 | > 100 µM | > 100 µM | > 100 µM | > 100 µM | > 100 µM | > 100 µM | > 100 µM |  |  | 
O=NN(CCCl)C(=O)N[C@H]1CCCC[C@@H]1Cl | > 100 µM | > 100 µM | > 100 µM | > 100 µM |  | > 100 µM | > 100 µM |  |  | 
Cc1ccc(N2C(=O)C(Cl)=C(Cl)C2=O)cc1 | 40.7 µM | 53.6 µM | 38.5 µM | 41.9 µM | 54.9 µM |  | 36.5 µM | 42.2 µM |  | 
COC(=O)Cc1cc(=O)n2c([nH]c3ccccc32)c1C#N | > 100 µM | > 100 µM |  | > 100 µM | > 100 µM | > 100 µM | > 100 µM |  |  | 
Cc1c(CC/C(=N\Nc2ccc([N+](=O)[O-])cc2[N+](=O)[O-])c2ccccc2)c2ccccc2n1C | > 100 µM | > 100 µM | > 100 µM | > 100 µM | > 100 µM | > 100 µM | > 100 µM | > 100 µM |  | 
Cn1sc2ccccc2c1=S | 10.1 µM | 28.8 µM | 27.1 µM | 16.2 µM | 31 µM | 25.1 µM | 7.46 µM |  |  | TGI (P388 leukemia): 1.67 µM; TGI (P388/ADR leukemia): 2.86 µM; TGI (SN12K1 renal): 7.41 µM
COc1cc(Nc2nc3cc(C(F)(F)F)ccc3nc2C)cc(OC)c1OC |  |  | 21.7 µM |  | 25.9 µM | 8.77 µM | 23.8 µM |  |  | 
O=C(O)[C@@H](NS(=O)(=O)c1ccc([N+](=O)[O-])cc1)c1ccccc1 | > 100 µM | > 100 µM | > 100 µM | > 100 µM |  | > 100 µM |  | > 100 µM |  | 
O=C(Cc1ccccc1)NS(=O)(=O)c1ccccc1 | > 100 µM | > 100 µM | > 100 µM |  | > 100 µM | > 100 µM | > 100 µM | > 100 µM |  | 
c1ccc2c(CNCCCCCCCCCCCCNCc3cccc4ccccc34)cccc2c1 | 3.31 µM | 3.37 µM | 3.23 µM | 3.22 µM | 3.41 µM | 3.11 µM |  |  |  | 
COc1ccccc1NC(=O)C(CC(C(=O)Nc1ccccc1OC)/C(C)=N/NC(=O)c1ccccc1O)/C(C)=N/NC(=O)c1ccccc1O (stereo not given) | > 100 µM | > 100 µM | > 100 µM | > 100 µM | > 100 µM | > 100 µM | > 100 µM | > 100 µM |  | 
Cc1ccc(NC(=O)c2cc3ccccc3cc2O)c(C)c1.Cc1ccc(NC(=O)c2cc3ccccc3cc2[O-])c(C)c1.[Ni+2] |  |  |  |  |  |  |  |  | 17.3 µM | GI50 (MDA-N): 3.44 µM
Cc1ccc2c(c1)C=CC(C#N)N2C(=O)Oc1ccccc1 (stereo not given) |  |  |  |  |  |  |  |  | > 100 µM | 
